Consider seven compounds from publication PMC11063020, “Antiviral and anti-inflammatory activities of chemical constituents from twigs of Mosla chinensis Maxim” (Natural Products and Bioprospecting, 2024).

Data set [1] has as its system NO production in LPS-activated RAW 264.7 cells. Description: Nitric oxide production assay in LPS-activated RAW 264.7 cells. The note with it: Mus musculus, read-out: IC50 (50% inhibitory concentration), LPS-induced NO production. The data set is classed as cell-based.
Data set [2] is described as follows: Cytotoxicity (CC50) in macrophages. The data set is classed as cell-based. To be noted: mouse. An excerpt:
Table 3 Inhibitory effect of 9, 22, 23 and 25 on LSP-induced NO production in macrophages | column: CC50^c (µM)

The subject of data set [3] is A/WSN/33/2009 (H1N1) virus. Description: microbe, parasite or virus in culture. The data set is classed as cell-based. To be noted: Influenza A virus, MDCK, 48 h; read-out: IC50 against A/WSN/33/2009 (H1N1) virus.
Data set [4] deals with A/WSN/33/2009 (H1N1) virus in MDCK cells. In kind it is cell-based, influenza A virus. The note with it: 20 at 50 μM, versus DMSO group.
The subject of data set [5] is nucleoprotein expression in influenza virus-infected MDCK cells. The data set is classed as cell-based, influenza A virus. To be noted: 20 at 50 μM, 2, 5 and 8 h.
Data set [6] has as its target hemagglutinin (HA) of influenza A/WSN/33/2009 (H1N1) (Influenza A virus, UniProt P03454). The note with it: chicken RBCs without virus.
[7] abbreviates: RAW264.7, LPS (1 μg/ml) activated RAW 264.7 cells, 24 h.
[8] abbreviates: macrophages, read-out: CC50 (50% cytotoxic concentration).

Where two headings read alike, the source gives them in different places. Bounds are passed on as bounds.

Sequence of hemagglutinin (HA) of influenza A/WSN/33/2009 (H1N1) (P03454 18-342 limits assumed): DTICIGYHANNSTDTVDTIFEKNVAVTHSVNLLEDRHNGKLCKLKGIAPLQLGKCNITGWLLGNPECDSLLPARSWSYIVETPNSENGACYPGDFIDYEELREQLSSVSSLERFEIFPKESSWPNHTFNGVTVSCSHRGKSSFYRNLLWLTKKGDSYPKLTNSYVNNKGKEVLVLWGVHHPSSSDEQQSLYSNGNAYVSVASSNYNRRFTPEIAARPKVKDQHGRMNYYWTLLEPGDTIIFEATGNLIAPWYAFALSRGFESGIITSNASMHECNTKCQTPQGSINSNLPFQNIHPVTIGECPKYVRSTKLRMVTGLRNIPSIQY
Sequence of hemagglutinin (HA) of influenza A/WSN/33/2009 (H1N1) (P03454 344-565 partner limits assumed): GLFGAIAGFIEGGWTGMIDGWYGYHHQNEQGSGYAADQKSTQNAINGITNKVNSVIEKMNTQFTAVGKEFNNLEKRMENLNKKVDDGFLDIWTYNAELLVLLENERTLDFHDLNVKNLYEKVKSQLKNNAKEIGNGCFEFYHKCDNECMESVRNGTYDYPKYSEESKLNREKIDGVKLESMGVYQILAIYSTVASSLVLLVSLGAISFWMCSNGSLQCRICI

With `COC(=O)C[C@@H](OC(=O)/C=C/c1ccc(O)c(O)c1)c1ccc(O)c(O)c1` [Compound 23, 3-(3ʹʹʹ,4ʹʹʹ-dihydroxyphenyl)-acrylic acid 1-(3ʹʹ,4ʹʹ-dihydroxyphenyl)-2-methoxycarbonylethyl ester], in data set [1] (setting [7]), the IC50 was 27.7 µM. Besides, the CC50 in data set [2] (setting [8]) was greater than 50 µM.

As to `COC(=O)[C@H]1Oc2ccc(/C=C/C(=O)O/C=C\c3ccc(O)c(O)c3)cc2O[C@H]1c1ccc(O)c(O)c1` [Compound 22, hyprhombins A], in data set [1] (setting [7]), the IC50 was found to be 20.5 µM. Further, in data set [2] (setting [8]), the CC50 is greater than 50 µM.

`O=c1cc(-c2ccc(O)c(O)c2)oc2cc(O)cc(O)c12` [Compound 9, luteolin]: in data set [1] (setting [7]), the IC50 was found to be 22.8 µM. In data set [2], this compound displayed a CC50 greater than 50 µM.

Regarding `COC(=O)[C@H](Cc1ccc(O)c(O)c1)OC(=O)/C=C/c1ccc(O)c2oc(-c3ccc(O)c(O)c3)cc12` [Compound 25, methyl salvianol acid C], in data set [1] (setting [7]), the IC50 is 30.1 µM. Also, in data set [2] (setting [8]), the CC50 was greater than 50 µM.

`CCOC(=O)C1=C[C@@H](OC(CC)CC)[C@H](NC(C)=O)[C@@H](N)C1` [oseltamivir, reference compound]: in data set [3], the IC50 was found to be 6.85 µM.

Regarding `COC(=O)[C@H]1c2c(/C=C/C(=O)O[C@H](Cc3ccc(O)c(O)c3)C(=O)O)ccc(O)c2O[C@@H]1c1ccc(O)c(O)c1` [Compound 20, methyl lithospermate], the “virus population / nucleoprotein distribution in infected cells (fluorescence microscopy)” value in data set [4] is reported as “influenza virus could be inhibited”. For the same compound, the “nucleoprotein protein expression (western blot)” value in data set [5] is “dramatically reduce the nucleoprotein protein expression”. For the same compound, the IC50 in data set [3] came out at 20.5 µM. The “effect of the compound alone on red blood cells” value in data set [6] is recorded as “no effect on red blood cells”.

For the compound `[H]/N=C(/NC)NCCC[C@H](N)C(=O)O` [L-NMMA, reference compound], in data set [1] (RAW264.7, 24 h), the IC50 was 21.8 µM. The CC50 in data set [2] (setting [8]) is greater than 50 µM.
